Experimental data reported in patent US20050197350A1, “Novel quinoline, tetrahydroquinazoline, and pyrimidine derivatives and methods of treatment related to the use thereof” (TAISHO PHARMACEUTICAL CO., LTD., priority 2003, published 2005).

system: MCH receptors; test: MCH receptor activity class (method not given); conditions: not given

Row | class | Compound
1 | 1 | Cc1cc(N(C)C)nc(N[C@H]2CC[C@@H](C(=O)NCc3cc(C(F)(F)F)cc(C(F)(F)F)c3)CC2)n1 [Example 2578, cis-N-[3,5-bis(trifluoromethyl)benzyl]-4-{[4-(dimethylamino)-6-methylpyrimidin-2-yl]amino}cyclohexanecarboxamide]

same assay, conditions: MCH receptor activity class 1-3 (percent of control at 10^-7 M or IC50)

Row | Compound | class
2 | CN(C)c1nc(N[C@H]2CC[C@@H](CNC(=O)Nc3ccc(C#N)cc3)CC2)nc2c1CCCC2 [compound 2480] | 3 (Class 3 The value of percent of control at 10^−7 M was more than 60% or the value of IC50 was more than 200 nM.)

same assay, conditions: MCH receptor; class by percent of control at 10^-7 M or IC50

Row | Compound | class
3 | COc1ccc(OC)c(CCNC(=S)N[C@H]2CC[C@@H](Nc3nc4c(c(N(C)C)n3)CCCC4)CC2)c1 [compound 2034] | 3 (Class 3 The value of percent of control at 10^−7 M was more than 60% or the value of IC50 was more than 200 nM.)
4 | CC(NC(=S)N[C@H]1CC[C@@H](Nc2nc3c(c(N(C)C)n2)CCCC3)CC1)c1ccccc1 (relative stereo) [compound 2024] | 3 (Class 3 The value of percent of control at 10^−7 M was more than 60% or the value of IC50 was more than 200 nM.)
5 | CN(C)c1nc(N[C@H]2CC[C@@H](NC(=S)Nc3cccc4nsnc34)CC2)nc2c1CCCC2 [compound 2083] | 3 (Class 3 The value of percent of control at 10^−7 M was more than 60% or the value of IC50 was more than 200 nM.)
6 | COc1cc(COC(=O)N[C@H]2CC[C@@H](Nc3cc(N(C)C)c4ccccc4n3)CC2)c([N+](=O)[O-])cc1OC [compound 119] | 3 (Class 3 The value of percent of control at 10^−7 M was more than 60% or the value of IC50 was more than 200 nM.)
7 | CN(C)c1cc(N[C@H]2CC[C@@H](NC(=O)C(C)(C)Oc3ccc(Cl)cc3)CC2)nc2ccccc12 [compound 139] | 3 (Class 3 The value of percent of control at 10^−7 M was more than 60% or the value of IC50 was more than 200 nM.)

same assay, conditions: activity class 1-3: percent of control at 10^-7 M or IC50

Row | Compound | class
8 | CN(C)c1cc(N[C@H]2CC[C@@H](NC(=O)OCC3c4ccccc4-c4ccccc43)CC2)nc2ccccc12 [compound 1557] | 3 (Class 3 The value of percent of control at 10^−7 M was more than 60% or the value of IC50 was more than 200 nM.)
9 | C=CCOC(=O)N[C@H]1CC[C@@H](Nc2nc3c(c(N(C)C)n2)CCCC3)CC1 [compound 1590] | 3 (Class 3 The value of percent of control at 10^−7 M was more than 60% or the value of IC50 was more than 200 nM.)

same assay, conditions: activity class per percent of control at 10^-7 M or IC50

Row | Compound | class
10 | CN(C)c1nc(N[C@H]2CC[C@@H](NC(=O)Cc3c[nH]c4ccc(OCc5ccccc5)cc34)CC2)nc2c1CCCC2 [compound 1024] | 3 (Class 3 The value of percent of control at 10^−7 M was more than 60% or the value of IC50 was more than 200 nM.)
11 | CN(C)c1cc(N[C@H]2CC[C@@H](CNCc3ccc(O)cc3Cl)CC2)nc2ccccc12 [compound 1146] | 3 (Class 3 The value of percent of control at 10^−7 M was more than 60% or the value of IC50 was more than 200 nM.)
12 | CN(C)c1nc(N[C@H]2CC[C@@H](CNC(=O)Cc3ccccc3I)CC2)nc2c1CCCC2 [compound 1069] | 3 (Class 3 The value of percent of control at 10^−7 M was more than 60% or the value of IC50 was more than 200 nM.)
13 | COc1cccc(CN[C@H]2CC[C@@H](Nc3cc(N(C)C)c4ccccc4n3)CC2)c1 [compound 1104] | 3 (Class 3 The value of percent of control at 10^−7 M was more than 60% or the value of IC50 was more than 200 nM.)

same assay, conditions: class 1-3 by percent of control at 10^-7 M or IC50

Row | Compound | class
14 | CN(C)c1nc(N[C@H]2CC[C@@H](CNC(=O)c3ccc(F)cc3)CC2)nc2c1CCCC2 [compound 599] | 3 (Class 3 The value of percent of control at 10^−7 M was more than 60% or the value of IC50 was more than 200 nM.)
15 | CN(C)c1nc(N[C@H]2CC[C@@H](NC(=O)c3ccc(OC(F)(F)F)c(Cl)c3)CC2)nc2c1CCCC2 [compound 579] | 3 (Class 3 The value of percent of control at 10^−7 M was more than 60% or the value of IC50 was more than 200 nM.)
16 | Cc1ccc(C(=O)N[C@H]2CC[C@@H](Nc3nc4c(c(N(C)C)n3)CCCC4)CC2)cc1F [compound 510] | 2 (Class 2: The value of percent of control at 10^−7 M was from 40% to 60% or the value of IC′50 was from 50 nM to 200 nM.)
17 | Cc1cc(C(=O)NC[C@H]2CC[C@@H](Nc3nccc(N(C)C)n3)CC2)c(C)o1 [compound 416] | 3 (Class 3 The value of percent of control at 10^−7 M was more than 60% or the value of IC50 was more than 200 nM.)
18 | CN(C)c1nc(N[C@H]2CC[C@@H](NC(=O)Cc3cccs3)CC2)nc2c1CCCC2 [compound 489] | 3 (Class 3 The value of percent of control at 10^−7 M was more than 60% or the value of IC50 was more than 200 nM.)

same assay, conditions: class by percent of control at 10^-7 M or IC50

Row | Compound | class
19 | CN(C)c1ccnc(N[C@H]2CC[C@@H](CNCc3ccccc3OC(F)F)CC2)n1 [compound 1293] | 3 (Class 3 The value of percent of control at 10^−7 M was more than 60% or the value of IC50 was more than 200 nM.)
20 | CCc1ccc(CNC[C@H]2CC[C@@H](Nc3cc(N(C)C)c4ccccc4n3)CC2)s1 [compound 1157] | 3 (Class 3 The value of percent of control at 10^−7 M was more than 60% or the value of IC50 was more than 200 nM.)
21 | CN(C)c1cc(N[C@H]2CC[C@@H](NC(=O)C3CCCC[C@H]3C(=O)c3ccccc3)CC2)nc2ccccc12 (stereo partly shown) [compound 693] | 3 (Class 3 The value of percent of control at 10^−7 M was more than 60% or the value of IC50 was more than 200 nM.)
22 | Cc1ccc(Cl)c(C(=O)NC[C@H]2CC[C@@H](Nc3nc4c(c(N(C)C)n3)CCCC4)CC2)c1F [compound 670] | 3 (Class 3 The value of percent of control at 10^−7 M was more than 60% or the value of IC50 was more than 200 nM.)
23 | COc1cc(CNC[C@H]2CC[C@@H](Nc3nc4c(c(N(C)C)n3)CCCC4)CC2)cc(OC)c1OC [compound 1378] | 2 (Class 2: The value of percent of control at 10^−7 M was from 40% to 60% or the value of IC′50 was from 50 nM to 200 nM.)
24 | N4,N4-dimethyl-N2-(cis-4-{[(2,4,5-trimethoxybenzyl)amino]-methyl}cyclohexyl)-5,6,7,8-tetrahydroquinazoline-2,4-diamine [compound 1416] | 1 (Class 1: The value of percent of control at 10^−7 M was less than 40% or the value of IC50 was less than 50 nM.)
25 | COc1cc(OC)c(OC)cc1CNC[C@H]1CC[C@@H](Nc2nc3c(c(N(C)C)n2)CCCC3)CC1 [compound 1417] | 1 (Class 1: The value of percent of control at 10^−7 M was less than 40% or the value of IC50 was less than 50 nM.)
26 | CN(C)c1cc(N[C@H]2CC[C@@H](CNC(=O)c3csc4ccccc34)CC2)nc2ccccc12 [compound 218] | 3 (Class 3 The value of percent of control at 10^−7 M was more than 60% or the value of IC50 was more than 200 nM.)
27 | CN(C)c1nc(N[C@H]2CC[C@@H](CNC(=O)c3ccccc3I)CC2)nc2c1CCCC2 [compound 657] | 3 (Class 3 The value of percent of control at 10^−7 M was more than 60% or the value of IC50 was more than 200 nM.)
28 | CN(C)c1ccnc(N[C@H]2CC[C@@H](NC(=O)Nc3ccccc3Cl)CC2)n1 [compound 2179] | 3 (Class 3 The value of percent of control at 10^−7 M was more than 60% or the value of IC50 was more than 200 nM.)
29 | COc1ccc2c(CC(=O)N[C@H]3CC[C@@H](Nc4nccc(N(C)C)n4)CC3)cc(=O)oc2c1 [compound 854] | 3 (Class 3 The value of percent of control at 10^−7 M was more than 60% or the value of IC50 was more than 200 nM.)
30 | COc1cc(Br)cc(CNC[C@H]2CC[C@@H](Nc3nc4c(c(N(C)C)n3)CCCC4)CC2)c1O [compound 1371] | 2 (Class 2: The value of percent of control at 10^−7 M was from 40% to 60% or the value of IC′50 was from 50 nM to 200 nM.)
31 | CCOc1c(Br)cc(Br)cc1CNC[C@H]1CC[C@@H](Nc2nc3c(c(N(C)C)n2)CCCC3)CC1 [compound 1446] | 3 (Class 3 The value of percent of control at 10^−7 M was more than 60% or the value of IC50 was more than 200 nM.)
32 | C[C@@H](NC(=S)N[C@H]1CC[C@@H](Nc2nc3c(c(N(C)C)n2)CCCC3)CC1)c1ccccc1 [compound 1778] | 3 (Class 3 The value of percent of control at 10^−7 M was more than 60% or the value of IC50 was more than 200 nM.)
33 | CN(C)c1ccnc(N[C@H]2CC[C@@H](CNC(=O)c3cccc(OC(F)(F)F)c3)CC2)n1 [compound 399] | 3 (Class 3 The value of percent of control at 10^−7 M was more than 60% or the value of IC50 was more than 200 nM.)
34 | CC(C)c1ccccc1NC(=O)N[C@H]1CC[C@@H](Nc2nccc(N(C)C)n2)CC1 [compound 2200] | 3 (Class 3 The value of percent of control at 10^−7 M was more than 60% or the value of IC50 was more than 200 nM.)
35 | CN(C)c1ccc(CNC[C@H]2CC[C@@H](Nc3nc4c(c(N(C)C)n3)CCCC4)CC2)cc1 [compound 1393] | 3 (Class 3 The value of percent of control at 10^−7 M was more than 60% or the value of IC50 was more than 200 nM.)
36 | CN(C)c1nc(N[C@H]2CC[C@@H](NC(=O)Nc3cccc(C#N)c3)CC2)nc2c1CCCC2 [compound 1817] | 3 (Class 3 The value of percent of control at 10^−7 M was more than 60% or the value of IC50 was more than 200 nM.)
37 | CN(C)c1cccc(C(=O)N[C@H]2CC[C@@H](Nc3cc(N(C)C)c4ccccc4n3)CC2)c1 [compound 705] | 3 (Class 3 The value of percent of control at 10^−7 M was more than 60% or the value of IC50 was more than 200 nM.)

same assay, conditions: class by percent of control at 10^−7 M or IC50

Row | Compound | class
38 | Cc1nc(N[C@H]2CC[C@@H](NC(=O)c3ccc(Br)cc3)CC2)nc(N(C)C)c1C [compound 2849, 4-bromo-N-(cis-4-{[4-(dimethylamino)-5,6-dimethylpyrimidin-2-yl]amino}cyclohexyl)benzamide] | 1 (Class 1: The value of percent of control at 10^−7 M was less than 40% or the value of IC50 was less than 50 nM.)
39 | CCOc1ccccc1NC(=O)N[C@H]1CC[C@@H](Nc2nc(C)c(C)c(N(C)C)n2)CC1 [compound 2868] | 1 (Class 1: The value of percent of control at 10^−7 M was less than 40% or the value of IC50 was less than 50 nM.)
40 | Cc1cnc(N[C@H]2CC[C@@H](NCc3cccc(Br)c3)CC2)nc1N(C)C [compound 2999] | 3 (Class 3 The value of percent of control at 10^−7 M was more than 60% or the value of IC50 was more than 200 nM.)
